The results in this text go back to patent publication US20120197004A1, “NOVEL ANTI-MICROBIAL PEPTIDOMIMETIC COMPOUNDS AND METHODS TO CALCULATE ANTI-MICROBIAL ACTIVITY” (priority 2006, published 2012).

The structures appear in SMILES notation. Values after ≈ are worked out from the molar mass of the structure shown. Where a SMILES comes first, the peptide text is derived from it. [ ]: non-standard residue; d: D form. Oic = O=C(O)[C@@H]1C[C@@H]2CCCC[C@@H]2N1; Tic = O=C(O)[C@@H]1Cc2ccccc2CN1; Orn = NCCC[C@H](N)C(=O)O

The subject of test [1] is Mycobacterium ranae (ATCC 110).
Test [2] deals with Salmonella typhimurium (ATCC 13311).
The test system of a further test is mouse cutaneous injury. In words: Mouse skin wound healing model. It counts as in vivo, CD-1 derived male mice. As to conditions: topical once daily for 10 days; test substances 100 μg/mouse, CGS-21680 10 μg/mouse. The protocol: In-vivo assays: Selected compounds were evaluated in an in-vivo mouse skin wound healing model by MDS Pharma Services using the following protocol. Groups of CD-1 derived male mice (n=5) weighting 24±2 g were used. Under hexobarbitol (90 mg/kg, IP) anesthesia, the shoulder and back region of each animal was shaved. A sharp punch (ID 12 mm) was applied to remove the skin including panniculus carnosus and adherent tissues. […] The percent closure of the wound (%) was calculated, and wound half-closure time (CT50) was analyzed by linear regression using Graph-Prism (Graph Software USA). One-way ANOVA followed by Dunnett's test was applied for comparison between the treated and its corresponding vehicle groups at each measurement time point. Differences are considered statistically significant at P<0.05.^41

Test [3] relates to Bacillus subtillis (ATCC 43223).
In test [4] the test system is Salmonella typhimurium strain LT2. Briefly: In vivo challenge, gram-negative infection. Conditions: Balb/c mice, intraperitoneal challenge 2.5×10^6; 5 mg/kg initial, then 2.5 mg/kg morning and afternoon.
Test [5] has as its system Staphylococcus aureus Methicillin/Gentamicin/Tetracycline Resistant (ATCC 33592).

In the case of `CC(=O)NCC(=O)N[C@@H](Cc1ccccc1)C(=O)N1Cc2ccccc2C[C@H]1C(=O)N1[C@H](C(=O)NCC(=O)N[C@@H](CCCN)C(=O)N2Cc3ccccc3C[C@H]2C(=O)N2[C@H](C(=O)NCC(=O)N[C@@H](Cc3ccccc3)C(=O)N3Cc4ccccc4C[C@H]3C(=O)N3[C@H](C(=O)NCC(=O)N[C@@H](CCCN)C(=O)N4Cc5ccccc5C[C@H]4C(=O)N[C@@H](CCCN)C(=O)N[C@@H](CCCN)C(=O)N[C@@H](CCCN)C(=O)N[C@@H](CCCN)C(N)=O)C[C@@H]4CCCC[C@@H]43)C[C@@H]3CCCC[C@@H]32)C[C@@H]2CCCC[C@@H]21` [FKAB-1Gp, Ac-GF-Tic-Oic-G-Orn-Tic-Oic-GF-Tic-Oic-G-Orn-Tic-Orn-Orn-Orn-Orn-CONH2] (Ac-GF[Tic][Oic]G[Orn][Tic][Oic]GF[Tic][Oic]G[Orn][Tic][Orn][Orn][Orn][Orn]-NH2), in test [1], the “Actual Bioactivity” value came out at 5.000. In test [1] (ATCC 110), the “MIC Mycobacterium ranae” value is 10.00 µM (≈ 23.6 µg/mL) and the “Minimum Inhibitory Concentration Mycobacterium ranae” value was found to be 10 µM. In addition, the “p(MIC) Salmonella typhimurium” value in test [2] (-log(MIC)) stood at 5.52. In test [2] (ATCC 13311), the “MIC Salmonella typhimurium” value stood at 3 µM (≈ 7.07 µg/mL). In the test with mouse cutaneous injury, the “CT50 (wound half-closure time)” value turned out to be 5.7 days, the “wound closure Day 3” value is listed as 38.8%, the “wound closure Day 5” value is reported as 51.2% and the “wound closure Day 7” value stood at 67.2%. Moreover, in the test on mouse cutaneous injury, the “wound closure Day 9” value came to 72.8% and the “wound closure Day 11” value is 81.1%. For the same compound, in test [3] (-log(MIC)), the “p(MIC) Bacillus Subtillis” value was determined as 6.52. Besides, in test [3] (ATCC 43223), the “MIC Bacillus Subtillis” value turned out to be 0.30 µM (≈ 0.707 µg/mL). For the same compound, the “morbidity (survival compared to control group)” value in test [4] is recorded as “Accelerated morbidity”. Further, the “p(MIC) Staphylococcus aureus ME/GM/TC resistant” value in test [5] (-log(MIC)) was 5.52. The “Actual Bioactivity” value in test [5] (p(MIC) used in Staphylococcus aureus QSAR model) was 5.520.
